Reference: US20070282004A1, “Use of a Cyclopentenone Prostaglandin for Delaying for the Onset and/or Preventing the Continuation of Labour” (Imperial College Innovations Limited, priority 2003, published 2007)
Entries after “also recorded” stand apart in the source; their conditions may differ.

Legend:
NF-κB [1] = molecular target: T1, NF-κB (Homo sapiens, UniProt P19838+Q04206); experiment: EMSA of NF-κB DNA binding in nuclear extracts of treated amnion cells; assay type: cell-based; settings: L− and L+ amnion cells, treated 2 h, then IL-1β 15 min
T1 construct: nuclear protein extracts from myometrial cells; endogenous in cells; host or cells: primary human myometrial cells (term, passage 1-4)
T1 sequence (Q04206 whole entry): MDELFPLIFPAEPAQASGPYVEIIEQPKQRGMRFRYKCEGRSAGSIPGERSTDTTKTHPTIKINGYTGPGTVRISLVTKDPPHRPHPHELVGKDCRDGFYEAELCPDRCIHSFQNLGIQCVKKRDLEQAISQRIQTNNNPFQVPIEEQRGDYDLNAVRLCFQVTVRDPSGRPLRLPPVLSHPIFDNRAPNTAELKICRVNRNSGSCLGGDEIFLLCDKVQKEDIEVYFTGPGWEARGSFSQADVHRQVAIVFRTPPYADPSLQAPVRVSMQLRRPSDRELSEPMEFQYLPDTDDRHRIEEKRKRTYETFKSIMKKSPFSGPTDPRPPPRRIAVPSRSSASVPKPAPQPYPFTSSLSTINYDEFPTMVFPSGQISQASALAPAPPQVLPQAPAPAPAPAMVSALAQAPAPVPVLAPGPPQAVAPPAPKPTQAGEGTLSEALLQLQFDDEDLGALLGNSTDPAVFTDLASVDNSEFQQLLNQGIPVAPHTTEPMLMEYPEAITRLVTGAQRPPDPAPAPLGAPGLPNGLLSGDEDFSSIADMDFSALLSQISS
T1 sequence (P19838 1-433 limits assumed): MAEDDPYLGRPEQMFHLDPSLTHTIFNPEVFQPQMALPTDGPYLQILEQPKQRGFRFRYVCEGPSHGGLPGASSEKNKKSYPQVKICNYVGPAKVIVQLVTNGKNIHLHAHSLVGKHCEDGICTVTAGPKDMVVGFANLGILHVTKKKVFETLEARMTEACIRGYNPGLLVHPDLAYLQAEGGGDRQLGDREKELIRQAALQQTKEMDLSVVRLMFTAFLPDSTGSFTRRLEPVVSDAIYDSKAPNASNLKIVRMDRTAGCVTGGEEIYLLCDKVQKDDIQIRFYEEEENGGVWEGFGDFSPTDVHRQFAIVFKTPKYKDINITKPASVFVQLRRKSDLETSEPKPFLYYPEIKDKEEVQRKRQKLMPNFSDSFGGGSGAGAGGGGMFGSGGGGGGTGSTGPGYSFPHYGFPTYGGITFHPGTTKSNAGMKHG
Protocol: Placentae were obtained from patients at term either at elective Caesarean section prior to labour (L−) or following spontaneous labour onset and vaginal delivery (L+). Amnion cells were prepared as described in Bennett et al., (1989). Briefly, the amnion was separated from the placenta, washed 3× in PBS, cut into strips, and incubated in 0.5 mM EDTA in PBS for 15 min. The strips were washed in PBS 2× and digested with 2.5 mg/ml dispase in serum-free DMEM for 35 min at 37° C. The amnion was then shaken vigorously in DMEM, 10% FCS to dissociate the cells, the remaining strips discarded, and the cell suspension pelleted at 175 g for 10 min and cultured in DMEM, 10% FCS (Sigma), 1% L-glutamine, 1% penicillin-streptomycin.
(§1) Nuclear and cytosolic protein extracts were obtained from cultured amnion cells as described by Schreiber et al (1989). For nuclear/cytosolic fractionation, confluent cell monolayers were scraped and lysed using a buffer containing 10 mM HEPES, 10 mM KCl, 0.1 mM EDTA, 0.1 mM EGTA, 2 mM DTT, 1% (v/v) NP-40 and complete protease inhibitor tablets (CPIs, Roche), diluted to manufacturer's instructions. Cell lysates were incubated on ice for 10 min and NP-40 added to a final concentration of 1% (v/v). Lysates were vortexed for 10 secs and centrifuged for 30 secs at 4° C., 12000 g. The supernatants were retained as the cytosolic protein extracts. The pellets were resuspended in buffer containing 10 mM HEPES, 10 mM KCl, 0.1 mM EDTA, 0.1 mM EGTA, 2 mM DTT, 400 mM NaCl, 1% NP-40 (v/v) and CPIs. Samples were shaken vigorously for 15 min in an ice bath. The nuclear protein extracts were obtained in the supernatant following a 5 min centrifugation at 4° C., 12000 g.
Sense and antisense strands (175 nmole/ml each) were incubated in annealing buffer (10 mM Tris-HCl pH7.5, 100 mM NaCl, 1 mM EDTA) for 10 min at 65° C., and allowed to cool at room temperature for 2 h. 3.5 pmole double-stranded oligonucleotides were end-labelled with 0.37 MBq ^32P(γATP) by incubating for 30 min at 37° C. with T4 polynucleotide kinase. Labelled oligonucleotides were recovered by centrifugation at 3000 rpm for 2 min through MicroSpin G-25 or G-50 sephadex columns (Amersham Biosciences).
3-5 μg protein extracts were incubated on ice for 1 h with non-radiolabelled non-specific oligonucleotide (poly(dI-dC) or Oct-1) in a binding buffer (20% (v/V) glycerol, 5 mM MgCl2, 2 mM EDTA, 50 mM Tris-HCl pH7.5, 250 mM NaCl, 2 mM DTT), followed by a 45 min incubation with 0.035 pmole ^32P(γ(ATP)-end labelled oligonucleotide probes:
Oct-1 or SP-1 consensus sequences were used as a controls for a NF-κB-specific effect. The resulting protein/DNA complexes were separated in a 4% acrylamide gel, the gel dried under vacuum at 80° C. and exposed to X-ray film. For supershift analysis, samples were incubated with 2 μg antibodies for 30 min on ice prior to incubation with oligonucleotides. Non-radio-labelled oligonucleotides were used at 100-fold molar excess for specific and non-specific competition for DNA binding. Reagents for EMSA were obtained from Promega Life Sciences, Delta House, Chilworth Research Centre, Southampton SO16 7NS, United Kingdom.

NF-κB [2] = experiment: Western immunoblot of p65, p50, IκB in myometrial cell extracts; assay type: cell-based, human; settings: myometrial cells; for IL-1β-induced p65 nuclear translocation: treated 2 h
Protocol: Western immunoblots of nuclear or cytosolic protein extracts from (A) myometrial cells, (B) L− amnion cells, and (C) L+ amnion cells treated with 15dPGJ2 or vehicle for 2 h±IL-1β stimulation (15 min). Blots probed with antibodies against p65, p50 or IκBα.
Western immunoblots of nuclear or cytosolic protein extracts from myometrial cells treated with PGA1 or vehicle for 2 h followed by IL-1β stimulation (15 min). Blots probed with antibodies against p65 or IκBa.
Western immunoblots of cytosolic extracts from myometrial cells (A) treated with 15dPGJ2 for 2h±IL1b for 15 min; probed for IKK, and (B) treated with […] 15dPGJ2, […] MG132 or vehicle for 2 h, ±IL-1β for 15 min; probed for IκBα.
(A) NF-κB-DNA binding was measured by EMSA in nuclear protein extracts from myometrial cells pre-treated with vehicle, 15d-PGJ2 or PGA1 for 2 h, followed by stimulation with IL-1β (1 ng/ml) for 15 min. Antibodies against p50 and p65 were used for supershift analysis. (B) Myometrial cells were transiently transfected with a NF-κB-LUC reporter and a β-gal reporter plasmid, pre-treated with vehicle or PGA1 for 2 h, and stimulated with IL-1β (1 ng/ml) for 6 h. Luciferase activity was normalized for β-gal reporter readout. Values are presented as the mean±SEM obtained for each treatment done in triplicate. Western blot analysis of nuclear p65 and p50 expression in myometrial cells treated with (C) PGA1 or (D) 15d-PGJ2 for 2 h, followed by stimulation with IL-1β (1 ng/ml) for 15 min. (E) Western blot analysis of whole cell lysates from myometrial cells treated with 15d-PGJ2 or 9,10-dihydro-15d-PGJ2 for 2 h, followed by stimulation with IL-1β (1 ng/ml) for 15 min. Membranes were probed with antibodies against p65 and Ser 536-phosphorylated p65.
Myometrial tissue was collected at term from the upper margin of uterine incision at the time of lower segment caesarean section either prior to the onset of labour (L−) or […] (L+). L+ samples were collected by Dr Mark Johnson and Dr S Soorrana at Chelsea & Westminster Hospital. Myometrial tissue was dissected, rinsed in PBS, and digested in serum-free DMEM containing 15 mg/ml collagenase 1A (Sigma), 15 mg/ml collagenase X, and 50 mg/ml bovine serum albumin for 45 min at 37° C. The cell suspension was filtered through a cell strainer, centrifuged at 400 g for 5 min, and the pellet re-suspended and plated out in DMEM, 10% FCS (Helena BioScience), 1% L-glutainine, 1% penicillin-streptomycin. Cells were used between passage numbers 1-4.
as §1
Protein samples (20-70 μg) were mixed with Laemmli sample buffer (1:1) containing β-mercaptoethanol (5%), and boiled for 5 min. Proteins were then separated by SDS-PAGE (12-14% gels) and transferred onto PVDF membrane (Amersham Pharmacia Biotech). The membranes were blocked overnight in 5% non-fat milk prepared in PBS-T buffer, at 4° C. The blots were incubated with the primary antibody in 1% non-fat milk in PBS-T buffer for 1 h, and washed three times (10 min each) in PBS-T with vigorous shaking. […]

Row | Structure (SMILES) | IL-1β-induced NF-κB DNA binding (EMSA) (NF-κB [1]) | IL-1β-induced NF-κB DNA binding (EMSA) (NF-κB [1]; listed as 15dPGJ2) | IL-1β-induced IκBα degradation (NF-κB [2]) | IL-1β-induced IκBβ degradation (NF-κB [2]) | IL-1β-induced p50 phosphorylation (NF-κB [2]) | IκBα phosphorylation (NF-κB [2]) | Accumulation of phosphorylated IκBα (NF-κB [2]; 2 h, IL-1β 15 min) | IL-1β-induced p65 nuclear translocation (NF-κB [2]; IL-1β 15 min) | IL-1β-induced p65 nuclear translocation (NF-κB [2]; IL-1β 15 min, listed as 15dPGJ2) | Reproduction of the effects of 15d-PGJ2 on NF-κB (incl. Ser 536-phosphorylated p65) (NF-κB [2]; 2 h, IL-1β 15 min, similar in amnion epithelial cells)
1 | CCCCCC=CC=C1C(=O)C=C[C@@H]1CC=CCCCC(=O)O [15d-PGJ2, 15-deoxy-Δ^12,14prostaglandin J2] | inhibited IL1-β-induced NF-κB DNA binding in a dose-dependent manner | inhibition | inhibition | inhibition | inhibition | inhibits | not detected | inhibited | inhibition | –
2 | CCCCC[C@H](O)/C=C/[C@H]1C=CC(=O)[C@@H]1CCCCCCC(=O)O [PGA1, prostaglandin A1] | inhibition | – | inhibition | – | – | – | – | inhibition; also recorded: inhibited | – | shares the effect of 15d-PGJ2
